Data reported in patent US20260125374A1, “PI3K-ALPHA INHIBITORS AND METHODS OF MAKING AND USING THE SAME” (Relay Therapeutics, Inc., priority 2021, published 2026).
Marks after values point to notes of the source that are not given here.

Experiment: Polymorph screening (equilibration, anti-solvent, slow evaporation, slow cooling, temperature cycling, heating-cooling; XRPD and SFC)
Format: physicochemical
Protocol: This polymorph screening program of compound I-1 free form was performed with two batches of the pure enantiomer. Both batches are crystalline and is assigned as Form A. The polymorphic behaviors of the enantiomer were investigated by equilibration at 25° C. and 50° C., equilibration under a temperature cycle, crystallization from hot saturated solutions by slow cooling, slow evaporation, precipitation by addition of anti-solvent, and DSC heating-cooling cycle experiments. Relative stability of identified polymorphs was investigated by competitive slurry experiments.
(§1) About 50 mg of I-1 Form A was weighed into a 2 mL glass vial and equilibrated in suitable amount of solvents (pretreated by molecular sieves) at 25° C. for 2 weeks with a stirring plate and with protection from light. Obtained suspensions were filtered with 0.45 μm nylon membrane and the solid parts (wet cake) were investigated by XRPD. When differences were observed, additional investigations were performed (e.g. DSC, TGA, ^1H-NMR, SFC).
as §1, with “into” for “into a”, “vials” for “vial”, “50°” for “25°”, “10 days” for “2 weeks”, “investigation was” for “investigations were”
I-1 Form A was dissolved in a good solvent. […] The solvents used were pretreated by molecular sieve. Precipitates were collected by filtration. The solid part (wet cake) was investigated by XRPD. […] When differences were observed, additional investigations were performed (e.g. DSC, TGA, ^1H-NMR, SFC).
Based on approximate solubility results, I-1 Form A was dissolved in suitable amount of solvents (pretreated by molecular sieves). Obtained solutions were filtered by 0.45 μm nylon filter. […] Solid residues were examined for their polymorphic form. When differences were observed, additional investigations were performed (e.g. DSC, TGA, ^1H-NMR, SFC).
Approximate 50 mg of batch I-1 Form A were dissolved in the minimal amount of selected solvents (without pretreatment by molecular sieves) at 50° C. Obtained solutions were filtered by 0.45 μm nylon filter. […] Precipitates were collected by filtration. The solid parts (wet cake) were investigated by XRPD. When differences were observed, additional investigations were performed (e.g. DSC, TGA, ^1H-NMR, SFC). When no precipitation was obtained or only a few solids were obtained, the solutions were placed at 5° C. for crystallization.
About 50 mg of I-1 Form A was equilibrated in different solvents (pretreated by molecular sieves) under a temperature cycle between 5° C. to 50° C. at a heating/cooling rate of 0.2° C./min for 10 cycles and with protection from light. After 10 cycles, precipitates were collected at 5° C. by filtration. The solid parts (wet cake) were investigated by XRPD. When differences were observed, additional investigations were performed (e.g. DSC, TGA, 1H-NMR, SFC).
Polymorphic behavior of I-1 Form A was investigated by two different heating-cooling cycles of DSC. Cycle 1:30° C. to 280° C. at 10° C./min; 280° C. to −20° C. at 20° C./min; reheat to 300° C. at 10° C./min. Cycle 2:30° C. to 280° C. at 10° C./min; 280° C. to-20° C. at 2° C./min; reheat to 300° C. at 10° C./min.

[1] = anti-solvent Acetone / Heptane(2V), added III-1 Form D seeds, stirred for 1 h
[2] = anti-solvent MeOH / Water(0.1V), III-1 Form A seeds, stirred for 2 days
[3] = anti-solvent THF / MTBE(1.5V), added I-1 Form C seeds, stirred for 2 h

Question: For `N#Cc1c(-c2cc(NC(=O)c3cc(F)cc(C(F)(F)F)c3)c3c(c2)C(=O)N[C@H]3c2cc(F)ccc2Cl)ccc2ncnn12` [Compound I-1, (R)-N-(3-(2-chloro-5-fluorophenyl)-6-(5-cyano-[1,2,4]triazolo[1,5-a]pyridin-6-yl)-1-oxoisoindolin-4-yl)-3-fluoro-5-(trifluoromethyl)benzamide], which XRPD [1] is on record?
Answer: The XRPD was “I-1 Form A”.

Question: What about the “ee %(SFC)” value [1] of the same molecule?
Answer: The value was “ee %(SFC): 94.9%*”.

Question: What about the “ee %(SFC)” value (anti-solvent MeOH / Water(0.1V), III-1 Form A seeds, stirred for 2 h) of the same molecule?
Answer: The value was “ee %(SFC): 98.8%*”.

Question: What about the XRPD [2] of the same molecule?
Answer: The XRPD was “I-1 Form A”.

Question: What about the “ee %(SFC)” value [2] of the same molecule?
Answer: Its value is “ee %(SFC): 99.2%*”.

Question: What about the XRPD [3] of the same molecule?
Answer: The XRPD was “I-1 Form C”.

Question: What about the “ee %(SFC)” value [3] of the same molecule?
Answer: Its value is “ee %(SFC): 99.5%*”.

Question: What about the XRPD (anti-solvent precipitation at 25° C.: Acetone / Heptane(2V)) of the same molecule?
Answer: Its XRPD is “I-1 Form A”.

Question: And the XRPD (anti-solvent precipitation at 25° C.: Acetone / MTBE(4V))?
Answer: Its XRPD is “I-1 Form A”.

Question: And the XRPD (anti-solvent precipitation at 25° C.: MeOH / MTBE(4V), stirred at 25° C. for 23 days)?
Answer: The XRPD was “I-1 Form E”.

Question: What about the “Comments (outcome)” value (anti-solvent precipitation at 25° C.: MeOH / Toluene(4V)) of the same molecule?
Answer: Its value is “Clear solution”.

Question: And the XRPD (anti-solvent precipitation at 25° C.: THF / Heptane(1.5V))?
Answer: The XRPD was “I-1 Form C”.

Question: What about the XRPD (anti-solvent precipitation at 25° C.: THF / MTBE(4V)) of the same molecule?
Answer: The XRPD was “I-1 Form C”.

Question: And the “ee %(SFC)” value (anti-solvent precipitation: MeOH / MTBE(4V), stirred at 25° C. for 23 days, SFC immediately after preparation)?
Answer: Its value is “ee % (SFC): 2.7%*”.

Question: And the “ee %(SFC)” value (anti-solvent precipitation: THF / MTBE(4V), SFC immediately after preparation)?
Answer: Its value is “ee % (SFC): 100.0%*”.

Question: And the “racemization in organic solvents (free form polymorph study)” value (certain organic solvents, including methanol and IPAc)?
Answer: The value was “easily racemized”.

Question: What about the XRPD (equilibration at 25° C. for 2 weeks in 1,4-Dioxane) of the same molecule?
Answer: Its XRPD is “I-1 Form A”.

Question: What about the XRPD (equilibration at 25° C. for 2 weeks in 2-MeTHF) of the same molecule?
Answer: The XRPD was “I-1 Form A”.

Question: And the XRPD (equilibration at 25° C. for 2 weeks in ACN/water(90:10, v/v) a.w. 0.9)?
Answer: Its XRPD is “I-1 + I-2 mixture”.

Question: What about the “ee %(SFC)” value (equilibration at 25° C. for 2 weeks in ACN/water(90:10, v/v), SFC immediately after preparation) of the same molecule?
Answer: The value was “ee % (SFC): 89.6%*”.

Question: What about the XRPD (equilibration at 25° C. for 2 weeks in Acetone) of the same molecule?
Answer: Its XRPD is “I-1 + I-2 mixture”.

Question: What about the XRPD (equilibration at 25° C. for 2 weeks in Acetone/water(60:40, v/v) a.w. 0.8) of the same molecule?
Answer: Its XRPD is “I-1 + I-2 mixture”.

Question: And the XRPD (equilibration at 25° C. for 2 weeks in Acetonitrile)?
Answer: Its XRPD is “I-1 Form A”.

Question: What about the XRPD (equilibration at 25° C. for 2 weeks in Benzyl alcohol) of the same molecule?
Answer: Its XRPD is “I-1 Form A”.

Question: And the XRPD (equilibration at 25° C. for 2 weeks in Dichloromethane)?
Answer: Its XRPD is “I-1 Form A”.

Question: What about the XRPD (equilibration at 25° C. for 2 weeks in Ethanol) of the same molecule?
Answer: The XRPD was “I-1 Form A”.

Question: What about the XRPD (equilibration at 25° C. for 2 weeks in Ethyl acetate) of the same molecule?
Answer: Its XRPD is “I-1 Form A”.

Question: What about the XRPD (equilibration at 25° C. for 2 weeks in Isopropyl acetate) of the same molecule?
Answer: The XRPD was “I-1 Form A”.

Question: What about the XRPD (equilibration at 25° C. for 2 weeks in MeOH/water(55:45, v/v) a.w. 0.7) of the same molecule?
Answer: The XRPD was “I-1 Form A”.

Question: What about the XRPD (equilibration at 25° C. for 2 weeks in Methanol) of the same molecule?
Answer: The XRPD was “I-1 + I-2 mixture”.

Question: And the XRPD (equilibration at 25° C. for 2 weeks in Methyl ethyl ketone)?
Answer: Its XRPD is “I-1 Form A”.

Question: What about the XRPD (equilibration at 25° C. for 2 weeks in THF/water(85:15, v/v) a.w. 0.9, target concentration 510 mg/mL) of the same molecule?
Answer: Its XRPD is “III-1 Form B”.

Question: What about the XRPD (equilibration at 25° C. for 2 weeks in Tetrahydrofuran) of the same molecule?
Answer: Its XRPD is “I-1 Form A”.

Question: What about the XRPD (equilibration at 25° C. for 2 weeks in Water) of the same molecule?
Answer: Its XRPD is “I-1 + I-2 mixture”.

Question: And the XRPD (equilibration at 25° C. for 2 weeks in t-Butyl methyl ether)?
Answer: The XRPD was “I-1 Form A”.

Question: And the “XRPD (4 days)” value (equilibration at 25° C. in THF/water(85:15, v/v) a.w. 0.9, added III-1 Form B seeds)?
Answer: The value was “I-1 + II-1 mixture”.

Question: And the “ee %(SFC)” value (equilibration at 25° C. in THF/water(85:15, v/v), 4 days, added III-1 Form B seeds)?
Answer: Its value is “ee %(SFC): 93.8%*”.

Question: What about the XRPD (equilibration at 50° C. for 10 days in 1,4-Dioxane) of the same molecule?
Answer: The XRPD was “I-1 Form B”.

Question: What about the “ee %(SFC)” value (equilibration at 50° C. for 10 days in 1,4-Dioxane, SFC immediately after preparation) of the same molecule?
Answer: The value was “ee % (SFC): 100.0%*”.

Question: And the XRPD (equilibration at 50° C. for 10 days in ACN/water(80:20, v/v) a.w. 0.9)?
Answer: Its XRPD is “III-1 Form A”.

Question: And the “ee %(SFC)” value (equilibration at 50° C. for 10 days in ACN/water(80:20, v/v), SFC immediately after preparation)?
Answer: Its value is “ee % (SFC): 50.7%*”.

Question: And the XRPD (equilibration at 50° C. for 10 days in Acetone)?
Answer: The XRPD was “I-1 Form A”.

Question: And the XRPD (equilibration at 50° C. for 10 days in Acetone/water(60:40, v/v) a.w. 0.8)?
Answer: Its XRPD is “III-1 Form C”.

Question: What about the “ee %(SFC)” value (equilibration at 50° C. for 10 days in Acetone/water(60:40, v/v), SFC immediately after preparation) of the same molecule?
Answer: Its value is “ee % (SFC): 56.9%*”.

Question: And the XRPD (equilibration at 50° C. for 10 days in Acetonitrile)?
Answer: The XRPD was “I-1 Form A”.

Question: And the XRPD (equilibration at 50° C. for 10 days in Anisole)?
Answer: The XRPD was “I-1 Form A”.

Question: What about the XRPD (equilibration at 50° C. for 10 days in EtOH/water(50:50, v/v) a.w. 0.9) of the same molecule?
Answer: The XRPD was “III-1 Form A”.

Question: What about the “ee %(SFC)” value (equilibration at 50° C. for 10 days in EtOH/water(50:50, v/v), SFC after preparation for about 12 h) of the same molecule?
Answer: Its value is “ee % (SFC): 75.0%#;”.

Question: And the “ee %(SFC)” value (equilibration at 50° C. for 10 days in EtOH/water(50:50, v/v), SFC immediately after preparation)?
Answer: The value was “ee % (SFC): 76.9%*,”.

Question: And the XRPD (equilibration at 50° C. for 10 days in Ethanol)?
Answer: The XRPD was “I-1 Form A”.
